Source: US20250051344A1, “BIFUNCTIONAL SELECTIVE DEGRADERS OF SMARCA2 AND THERAPEUTIC USES THEREOF” (Nurix Therapeutics, Inc., priority 2023, published 2025)

Key:
SMARCA4 = biological target: T1, SMARCA4 (Homo sapiens, UniProt P51532); test: Cellular degradation assay, SMARCA4 (Table 1); type: cell-based
T1 construct: endogenous in cells

SMARCA2 = biological target: T2, SMARCA2 (Homo sapiens, UniProt P51531); test: SMARCA2 Cellular Degradation Assay (Western blot analysis on Jess platform); type: cell-based; details: for DC50 / Dmax: cellular degradation; for Fold Selectivity SMARCA4/2: ratio DC50 SMARCA4 / DC50 SMARCA2
T2 construct: endogenous in cells
T2 sequence (P51531 whole entry, species assumed): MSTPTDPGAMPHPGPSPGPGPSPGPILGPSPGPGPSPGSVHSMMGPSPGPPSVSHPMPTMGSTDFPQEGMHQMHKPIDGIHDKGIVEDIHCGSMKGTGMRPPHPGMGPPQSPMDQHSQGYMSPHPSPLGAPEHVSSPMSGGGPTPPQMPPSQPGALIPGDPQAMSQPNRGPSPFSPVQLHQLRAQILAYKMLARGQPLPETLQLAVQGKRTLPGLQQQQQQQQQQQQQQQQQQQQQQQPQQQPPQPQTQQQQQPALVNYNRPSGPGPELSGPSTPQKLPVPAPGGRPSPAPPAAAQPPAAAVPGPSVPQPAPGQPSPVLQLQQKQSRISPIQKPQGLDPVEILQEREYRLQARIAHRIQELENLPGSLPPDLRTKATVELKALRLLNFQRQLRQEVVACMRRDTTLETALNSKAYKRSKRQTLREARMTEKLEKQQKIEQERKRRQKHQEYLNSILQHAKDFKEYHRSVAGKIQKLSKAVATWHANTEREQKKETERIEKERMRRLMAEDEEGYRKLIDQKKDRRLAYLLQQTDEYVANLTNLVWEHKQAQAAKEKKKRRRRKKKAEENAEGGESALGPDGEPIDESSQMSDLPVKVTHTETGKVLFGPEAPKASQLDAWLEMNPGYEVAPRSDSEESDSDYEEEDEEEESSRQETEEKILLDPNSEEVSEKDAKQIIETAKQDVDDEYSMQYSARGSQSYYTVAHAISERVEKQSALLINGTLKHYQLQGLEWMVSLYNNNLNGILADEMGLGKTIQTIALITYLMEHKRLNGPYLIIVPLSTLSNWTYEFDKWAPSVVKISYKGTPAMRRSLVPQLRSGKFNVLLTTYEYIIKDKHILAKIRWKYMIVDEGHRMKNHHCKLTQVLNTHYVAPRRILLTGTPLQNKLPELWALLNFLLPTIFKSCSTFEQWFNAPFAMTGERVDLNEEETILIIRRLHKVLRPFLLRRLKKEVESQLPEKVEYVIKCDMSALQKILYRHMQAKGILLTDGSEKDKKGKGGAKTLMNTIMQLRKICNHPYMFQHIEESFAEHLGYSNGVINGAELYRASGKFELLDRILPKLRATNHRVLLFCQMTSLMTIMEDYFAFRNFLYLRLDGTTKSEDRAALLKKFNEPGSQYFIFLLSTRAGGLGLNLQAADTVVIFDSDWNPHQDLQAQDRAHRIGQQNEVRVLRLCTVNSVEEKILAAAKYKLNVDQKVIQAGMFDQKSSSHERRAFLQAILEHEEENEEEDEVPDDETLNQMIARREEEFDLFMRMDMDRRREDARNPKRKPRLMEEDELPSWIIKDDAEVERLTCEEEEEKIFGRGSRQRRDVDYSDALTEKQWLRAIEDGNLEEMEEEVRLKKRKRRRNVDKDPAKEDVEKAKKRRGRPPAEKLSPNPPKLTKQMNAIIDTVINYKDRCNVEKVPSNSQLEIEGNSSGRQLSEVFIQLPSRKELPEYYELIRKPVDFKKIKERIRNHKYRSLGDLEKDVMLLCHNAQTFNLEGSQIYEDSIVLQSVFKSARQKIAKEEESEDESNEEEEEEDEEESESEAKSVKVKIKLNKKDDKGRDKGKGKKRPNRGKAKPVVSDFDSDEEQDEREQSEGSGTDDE
Outline: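 Lysates of cells extracted from tumors were prepared in supplemented RIPA buffer, and 5 μg total protein per capillary was analysed by capillary Western (Jess) with anti-SMARCA2 and anti-β-actin antibodies. SMARCA2 electropherogram area was background-subtracted, normalized to actin, and expressed as percent remaining versus vehicle control.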

T1 sequence (P51532 whole entry, species assumed): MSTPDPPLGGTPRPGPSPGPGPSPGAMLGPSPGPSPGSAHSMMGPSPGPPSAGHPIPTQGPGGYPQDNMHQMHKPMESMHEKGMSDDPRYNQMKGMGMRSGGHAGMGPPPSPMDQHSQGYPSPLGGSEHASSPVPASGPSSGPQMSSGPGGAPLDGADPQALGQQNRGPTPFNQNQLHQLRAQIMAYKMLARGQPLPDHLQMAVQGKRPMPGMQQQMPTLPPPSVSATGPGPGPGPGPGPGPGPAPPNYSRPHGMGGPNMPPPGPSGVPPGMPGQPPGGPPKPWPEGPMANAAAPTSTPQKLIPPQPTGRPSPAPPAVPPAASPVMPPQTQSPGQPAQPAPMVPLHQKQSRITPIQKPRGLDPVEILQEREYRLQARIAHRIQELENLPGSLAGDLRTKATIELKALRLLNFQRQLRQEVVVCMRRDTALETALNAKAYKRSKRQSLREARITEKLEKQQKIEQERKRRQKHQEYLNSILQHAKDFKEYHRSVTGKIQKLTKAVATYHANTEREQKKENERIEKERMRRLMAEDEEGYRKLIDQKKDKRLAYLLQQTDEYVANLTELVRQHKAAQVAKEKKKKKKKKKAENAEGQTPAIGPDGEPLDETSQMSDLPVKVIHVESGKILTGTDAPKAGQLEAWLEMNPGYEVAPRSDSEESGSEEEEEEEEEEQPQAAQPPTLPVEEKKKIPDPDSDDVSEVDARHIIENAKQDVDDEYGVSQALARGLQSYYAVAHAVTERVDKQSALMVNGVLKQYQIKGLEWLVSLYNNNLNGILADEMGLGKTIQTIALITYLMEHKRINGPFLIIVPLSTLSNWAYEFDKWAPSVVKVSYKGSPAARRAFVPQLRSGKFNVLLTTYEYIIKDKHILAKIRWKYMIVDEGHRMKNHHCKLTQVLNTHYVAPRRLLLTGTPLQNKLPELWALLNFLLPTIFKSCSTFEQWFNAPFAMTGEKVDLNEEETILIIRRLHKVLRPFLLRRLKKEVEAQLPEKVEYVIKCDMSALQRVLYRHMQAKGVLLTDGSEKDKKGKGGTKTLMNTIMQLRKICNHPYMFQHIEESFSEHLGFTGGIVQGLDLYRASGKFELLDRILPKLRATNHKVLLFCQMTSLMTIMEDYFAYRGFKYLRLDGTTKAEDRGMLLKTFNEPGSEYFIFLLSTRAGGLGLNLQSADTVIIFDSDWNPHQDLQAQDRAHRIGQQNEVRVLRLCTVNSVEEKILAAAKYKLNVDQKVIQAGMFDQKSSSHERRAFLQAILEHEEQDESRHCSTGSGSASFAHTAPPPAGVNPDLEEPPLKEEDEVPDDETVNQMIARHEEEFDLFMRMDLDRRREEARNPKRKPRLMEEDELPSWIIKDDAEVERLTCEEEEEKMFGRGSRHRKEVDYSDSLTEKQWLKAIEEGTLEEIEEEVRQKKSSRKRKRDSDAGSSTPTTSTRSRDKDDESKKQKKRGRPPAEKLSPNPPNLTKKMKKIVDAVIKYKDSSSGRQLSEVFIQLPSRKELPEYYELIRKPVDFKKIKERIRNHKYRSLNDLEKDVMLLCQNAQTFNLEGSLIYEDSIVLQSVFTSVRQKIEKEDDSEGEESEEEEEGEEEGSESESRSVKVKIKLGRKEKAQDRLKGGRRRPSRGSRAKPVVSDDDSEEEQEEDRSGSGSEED

SMILES | Dmax (SMARCA4) [%] | DC50 (SMARCA2) [nM] | Dmax (SMARCA2) [%] | Fold Selectivity SMARCA4/2 (SMARCA2) | DC50 (SMARCA4) [nM]
O=C1CCC(c2ccc(N3CCC(CCN4CC5(C4)CN(C(=O)C4(c6cc7ccccn7n6)CCN(c6cnnc(-c7ccccc7O)c6)CC4)C5)CC3)cc2)C(=O)N1 (racemic) [Example 80, rac-(3R)-3-(4-{4-[2-(6-{1-[6-(2-hydroxyphenyl)pyridazin-4-yl]-4-{pyrazolo[1,5-a]pyridin-2-yl}piperidine-4-carbonyl}-2,6-diazaspiro[3.3]heptan-2-yl)ethyl]piperidin-1-yl}phenyl)piperidine-2,6-dione] | 21.9 | 14.2 | 60 | 705 | –
Cc1cnn(C2(C(=O)N(C)C3CCN(CC4CCN(c5ccc([C@H]6CCC(=O)NC6=O)cc5)CC4)CC3)CCN(c3cnnc(-c4ccccc4O)c3)CC2)c1 [Example 154, N-{1-[(1-{4-[(3R)-2,6-dioxopiperidin-3-yl]phenyl}piperidin-4-yl)methyl]piperidin-4-yl}-1-[6-(2-hydroxyphenyl)pyridazin-4-yl]-N-methyl-4-(4-methyl-1H-pyrazol-1-yl)piperidine-4-carboxamide] | 65.6 | 2.87 | 87.7 | 8 | 22.3
O=C1CCC(c2ccc(N3CCC(F)(CN4CCC(NC(=O)C5(c6ccccc6)CCN(c6cnnc(-c7ccccc7O)c6)CC5)CC4)CC3)cc2)C(=O)N1 (racemic) [Example 179, rac-N-{1-[(1-{4-[(3R)-2,6-dioxopiperidin-3-yl]phenyl}-4-fluoropiperidin-4-yl)methyl]piperidin-4-yl}-1-[6-(2-hydroxyphenyl)pyridazin-4-yl]-4-phenylpiperidine-4-carboxamide] | 57.7 | 17.9 | 83.4 | 12 | 211
CN(C(=O)C1(c2ccnn2C)CCN(c2cnnc(-c3ccccc3O)c2)CC1)C1CCN(CCC2CCN(c3cccc4c3n(C)c(=O)n4C3CCC(=O)NC3=O)CC2)CC1 (racemic) [Example 62, rac-N-{1-[2-(1-{1-[(3R)-2,6-dioxopiperidin-3-yl]-3-methyl-2-oxo-2,3-dihydro-1H-1,3-benzodiazol-4-yl}piperidin-4-yl)ethyl]piperidin-4-yl}-1-[6-(2-hydroxyphenyl)pyridazin-4-yl]-N-methyl-4-(1-methyl-1H-pyrazol-5-yl)piperidine-4-carboxamide] | 52.3 | 0.25 | 93.2 | 602 | 151
O=C1CCC(c2c(F)cc(N3CCC(CN4CCC5(CC4)CN(C(=O)C4(c6ccccc6)CCN(c6cnnc(-c7ccccc7O)c6)CC4)C5)CC3)cc2F)C(=O)N1 (racemic) [Example 193, rac-(3R)-3-(2,6-difluoro-4-{4-[(2-{1-[6-(2-hydroxyphenyl)pyridazin-4-yl]-4-phenylpiperidine-4-carbonyl}-2,7-diazaspiro[3.5]nonan-7-yl)methyl]piperidin-1-yl}phenyl)piperidine-2,6-dione] | 84.2 | 1.24 | 94.9 | 11 | 13.2
CN(C(=O)C1(OC2CC2)CCN(c2cnnc(-c3ccccc3O)c2)CC1)C1CCN(CC2CCN(c3ccc([C@H]4CCC(=O)NC4=O)cc3)CC2)CC1 [Example 114, (r)-4-cyclopropoxy-n-(1-((1-(4-(2,6-dioxopiperidin-3-yl)phenyl)piperidin-4-yl)methyl)piperidin-4-yl)-1-(6-(2-hydroxyphenyl)pyridazin-4-yl)-n-methylpiperidine-4-carboxamide] | 49.9 | 9.94 | 78.6 | 1006 | –
O=C1CC[C@H](c2ccc(N3CCC(CN4CC[C@@H](NC(=O)C5(c6ccccc6)CCN(c6cnnc(-c7ccccc7O)c6)CC5)CC45CCC5)CC3)cc2)C(=O)N1 [Example 190, N-[(8R)-5-[(1-{4-[(3R)-2,6-dioxopiperidin-3-yl]phenyl}piperidin-4-yl)methyl]-5-azaspiro[3.5]nonan-8-yl]-1-[6-(2-hydroxyphenyl)pyridazin-4-yl]-4-phenylpiperidine-4-carboxamide] | 58.8 | 2.72 | 89.2 | 30 | 81.9
O=C1CC[C@@H](c2ccc(N3CCN(CC4=NO[C@@H]5CN(C(=O)C6(c7ccccc7)CCN(c7cnnc(-c8ccccc8O)c7)CC6)C[C@H]45)CC3)cc2)C(=O)N1 (racemic) [Example 165, (3RS&)-3-[4-(4-{[(3aRS,6aSR)-5-{1-[6-(2-hydroxyphenyl)pyridazin-4-yl]-4-phenylpiperidine-4-carbonyl}-3aH,4H,5H,6H,6aH-pyrrolo[3,4-d][1,2]oxazol-3-yl]methyl}piperazin-1-yl)phenyl]piperidine-2,6-dione] | 34 | 45.8 | 58 | 22 | 1000
CC1(CCN2CC3(C2)CN(C(=O)C2(c4ccccc4)CCN(c4cnnc(-c5ccccc5O)c4)CC2)C3)CCN(c2ccc(C3CCC(=O)NC3=O)cc2)CC1 (racemic) [Example 131, rac-(3R)-3-(4-{4-[2-(6-{1-[6-(2-hydroxyphenyl)pyridazin-4-yl]-4-phenylpiperidine-4-carbonyl}-2,6-diazaspiro[3.3]heptan-2-yl)ethyl]-4-methylpiperidin-1-yl}phenyl)piperidine-2,6-dione] | 38.9 | 29.4 | 71.3 | 340 | –
Cn1ccc(C2(C(=O)N3CC4(CN(CC5CCN(c6ccc(C7CCC(=O)NC7=O)cc6)CC5)C4)C3)CCN(c3cnnc(-c4ccccc4O)c3)CC2)n1 (racemic) [Example 54, rac-(R)-3-(4-(4-((6-(1-(6-(2-hydroxyphenyl)pyridazin-4-yl)-4-(1-methyl-1H-pyrazol-3-yl)piperidine-4-carbonyl)-2,6-diazaspiro[3.3]heptan-2-yl)methyl)piperidin-1-yl)phenyl)piperidine-2,6-dione] | 56.8 | 6.7 | 80.5 | 8.74 | 58.6
CN(C(=O)C1(OC2CC2)CCN(c2cnnc(-c3ccccc3O)c2)CC1)C1CCN(CCC2CCN(c3ccc([C@H]4CCC(=O)NC4=O)c(F)c3)CC2)CC1 (racemic) [Example 70, rac-(r)-4-cyclopropoxy-n-(1-(2-(1-(4-(2,6-dioxopiperidin-3-yl)-3-fluorophenyl)piperidin-4-yl)ethyl)piperidin-4-yl)-1-(6-(2-hydroxyphenyl)pyridazin-4-yl)-n-methylpiperidine-4-carboxamide] | 35.1 | 8.6 | 81.4 | 1163 | –
O=C1CC[C@H](n2ccc3cc(N4CCC(CN5CCC(NC(=O)C6(c7ccccc7)CCN(c7cnnc(-c8ccccc8O)c7)CC6)CC5)CC4)ccc3c2=O)C(=O)N1 [Example 157, N-{1-[(1-{2-[(3S)-2,6-dioxopiperidin-3-yl]-1-oxo-1,2-dihydroisoquinolin-6-yl}piperidin-4-yl)methyl]piperidin-4-yl}-1-[6-(2-hydroxyphenyl)pyridazin-4-yl]-4-phenylpiperidine-4-carboxamide] | 82.6 | 1.56 | 91.8 | 5 | 8.12
O=C1CC[C@H](c2ccc(N3CCC(CCN4CCC(N(C(=O)C5(c6ccccc6)CCN(c6cnnc(-c7ccccc7O)c6)CC5)C5CC5)CC4)CC3)cc2)C(=O)N1 [Example 74, N-cyclopropyl-N-{1-[2-(1-{4-[(3r)-2,6-dioxopiperidin-3-yl]phenyl}piperidin-4-yl)ethyl]piperidin-4-yl}-1-[6-(2-hydroxyphenyl)pyridazin-4-yl]-4-phenylpiperidine-4-carboxamide] | 69.2 | 1.88 | 94.2 | 32 | 59.3
O=C1CC[C@H](c2ccc(C3CCN(CC(=O)N4CCC(S(=O)(=O)NCC5(c6ccccc6)CCN(c6cnnc(-c7ccccc7O)c6)CC5)CC4)CC3)cc2)C(=O)N1 (racemic) [Example 109, rac-1-(2-(4-(4-(2,6-dioxopiperidin-3-yl)phenyl)piperidin-1-yl)acetyl)-n-((1-(6-(2-hydroxyphenyl)pyridazin-4-yl)-4-phenylpiperidin-4-yl)methyl)piperidine-4-sulfonamide] | 67.1 | 76.9 | 82.7 | 6 | 498
CCN(C(=O)C1(c2ccccc2)CCN(c2cnnc(-c3ccccc3O)c2)CC1)C1CCN(C(=O)CN2CCN(c3ccc(C4CCC(=O)NC4=O)cc3)CC2)CC1 (racemic) [Example 185, rac-N-{1-[2-(4-{4-[(3R)-2,6-dioxopiperidin-3-yl]phenyl}piperazin-1-yl)acetyl]piperidin-4-yl}-N-ethyl-1-[6-(2-hydroxyphenyl)pyridazin-4-yl]-4-phenylpiperidine-4-carboxamide] | 58.5 | 7.13 | 88.8 | 20 | 143
CN(C(=O)C1(Oc2ccn(C)n2)CCN(c2cnnc(-c3ccccc3O)c2)CC1)C1CCN(CC2CCN(c3ccc([C@H]4CCC(=O)NC4=O)cc3)CC2)CC1 [Example 125, (r)-n-(1-((1-(4-(2,6-dioxopiperidin-3-yl)phenyl)piperidin-4-yl)methyl)piperidin-4-yl)-1-(6-(2-hydroxyphenyl)pyridazin-4-yl)-n-methyl-4-((1-methyl-1h-pyrazol-3-yl)oxy)piperidine-4-carboxamide] | 62.5 | 6.01 | 82 | 6 | 36.9
